Assay results published in patent EP0176913A2, “Glycourethane derivatives, methods for their preparation and their use” (BEHRINGWERKE Aktiengesellschaft, priority 1984, dated 1986).

Test system: Erdnußlectin (Arachis Hypogea)
Test: Inhibition of peanut lectin haemagglutination of neuraminidase-treated erythrocytes
Format: cell-based
Conditions: compound at 0,5 mg/ml; erythrocytes as 2,5% suspension; lectin titer 2-^8
Procedure: Inhibition von Erdnußlectin (Arachis Hypogea) mit Verbindung 29
Die Hämagglutination von Neuraminidase(VCN)-behandelten Erythrozyten (als 2,5%-ige Suspension) mit Erdunßlectin (Titer 2-^8) wurde vollständig mit Verbindung 29 (0,5 mg/ml) inhibiert.

**Q.** Which “Hämagglutination von Neuraminidase(VCN)-behandelten Erythrozyten mit Erdunßlectin inhibiert” value does the source give for `CC(=O)N[C@H]1[C@@H](OC(=O)N[C@@H](CO)C(=O)NCCCCCC(=O)O)O[C@H](CO)[C@H](O)[C@@H]1O[C@@H]1O[C@H](CO)[C@H](O)[C@H](O)[C@H]1O` [Verbindung 29, N-((2-Acetamido-2-desoxy-3-0-(8-D-galactopyranosyl)-alpha-D-galactopyranosyl)-oxycarbonyl)-L-seryl-S-carboxy-pentylamid] here?
**A.** vollständig
